Paper PMC4871277 (Biochemical pharmacology, 2015)
Read-outs that look alike come from different tables or passages of the source.

Experiments:
[1] = test system: NF-κB promoter activity in RAW-Blue macrophages; experiment: RAW-Blue NF-κB reporter gene assay; type: cell-based, murine; settings: 16 hrs pre-treatment + 4 hrs stimulus
[2] = test system: RAW264.7 murine macrophages; experiment: Gene expression analysis in RAW264.7 by RT-q-PCR after LPS and IFNγ stimulus; type: cell-based
[3] = test system: murine precision-cut lung slices (PCLS); type: cell-based
[4] = test system: histone H3 and H4 acetylation in RAW264.7 cells; experiment: Histone acetylation by acetic anhydride-d6 labelling and LC-MS/MS; type: cell-based, murine
[5] = test system: α-tubulin acetylation in RAW264.7 cells; experiment: α-tubulin acetylation immunoblot; type: cell-based, murine
[6] = target: T1, lysine acetyltransferase 8 (KAT8) (Homo sapiens, UniProt Q9H7Z6); experiment: KAT8 activity assay; type: biochemical; settings: N.I. = no inhibition
T1 sequence (Q9H7Z6 1-458): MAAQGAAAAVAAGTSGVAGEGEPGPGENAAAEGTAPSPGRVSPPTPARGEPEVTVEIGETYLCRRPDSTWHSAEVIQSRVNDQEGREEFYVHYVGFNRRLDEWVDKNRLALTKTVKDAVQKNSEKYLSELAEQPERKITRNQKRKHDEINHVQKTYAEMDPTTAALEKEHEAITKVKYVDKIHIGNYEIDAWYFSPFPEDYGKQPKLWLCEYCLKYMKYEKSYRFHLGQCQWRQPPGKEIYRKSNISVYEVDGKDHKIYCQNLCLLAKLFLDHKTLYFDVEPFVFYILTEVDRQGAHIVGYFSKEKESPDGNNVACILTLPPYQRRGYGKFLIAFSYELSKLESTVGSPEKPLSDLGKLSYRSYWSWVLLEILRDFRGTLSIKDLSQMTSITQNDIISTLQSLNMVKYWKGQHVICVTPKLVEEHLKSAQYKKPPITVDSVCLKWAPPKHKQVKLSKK

HDAC1 = HDAC1 (Homo sapiens, UniProt Q13547); experiment: human recombinant HDAC inhibition assay; type: biochemical; settings: N.I. = no inhibition
HDAC2 = HDAC2 (Homo sapiens, UniProt Q92769); experiment: human recombinant HDAC inhibition assay and Lineweaver-Burk plots; type: biochemical
HDAC3 = HDAC3 (Homo sapiens, UniProt O15379); experiment: human recombinant HDAC inhibition assay; type: biochemical; settings: read-out: Ki value HDAC3
HDAC6 = target: T2, HDAC6 (Homo sapiens, UniProt Q9UBN7); experiment: human recombinant HDAC inhibition assay and Lineweaver-Burk plots; type: biochemical
T2 sequence (Q9UBN7 1-1215): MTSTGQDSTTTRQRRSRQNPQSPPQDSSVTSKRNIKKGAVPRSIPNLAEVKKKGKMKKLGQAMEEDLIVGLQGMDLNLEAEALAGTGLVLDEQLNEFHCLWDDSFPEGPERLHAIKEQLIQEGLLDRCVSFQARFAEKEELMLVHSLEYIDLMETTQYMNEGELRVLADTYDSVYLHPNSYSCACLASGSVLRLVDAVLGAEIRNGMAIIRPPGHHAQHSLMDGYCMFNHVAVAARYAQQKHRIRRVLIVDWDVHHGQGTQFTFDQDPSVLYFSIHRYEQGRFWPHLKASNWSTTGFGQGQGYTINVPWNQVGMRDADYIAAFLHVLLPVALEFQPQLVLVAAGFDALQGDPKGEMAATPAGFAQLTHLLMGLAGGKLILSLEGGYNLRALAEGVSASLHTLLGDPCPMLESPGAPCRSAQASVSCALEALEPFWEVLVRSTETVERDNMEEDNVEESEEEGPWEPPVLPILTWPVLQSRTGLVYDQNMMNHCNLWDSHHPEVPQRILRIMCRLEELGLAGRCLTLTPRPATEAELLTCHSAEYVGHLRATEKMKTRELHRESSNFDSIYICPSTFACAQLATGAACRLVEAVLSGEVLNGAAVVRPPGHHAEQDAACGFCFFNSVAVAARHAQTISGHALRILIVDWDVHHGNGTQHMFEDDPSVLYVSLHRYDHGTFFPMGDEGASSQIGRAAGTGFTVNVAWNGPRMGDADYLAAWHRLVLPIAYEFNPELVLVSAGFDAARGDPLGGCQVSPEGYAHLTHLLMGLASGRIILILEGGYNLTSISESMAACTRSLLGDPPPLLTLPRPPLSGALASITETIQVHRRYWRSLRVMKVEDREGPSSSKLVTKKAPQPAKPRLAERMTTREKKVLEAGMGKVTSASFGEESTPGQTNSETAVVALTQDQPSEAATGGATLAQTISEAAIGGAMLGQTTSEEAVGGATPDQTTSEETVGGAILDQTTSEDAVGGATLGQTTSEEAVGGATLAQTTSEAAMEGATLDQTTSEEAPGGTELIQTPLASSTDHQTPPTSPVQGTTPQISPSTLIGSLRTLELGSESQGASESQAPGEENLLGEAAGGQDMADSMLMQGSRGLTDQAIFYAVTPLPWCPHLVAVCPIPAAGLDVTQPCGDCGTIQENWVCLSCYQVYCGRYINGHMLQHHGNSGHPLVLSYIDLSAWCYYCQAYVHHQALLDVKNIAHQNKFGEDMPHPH

HDAC8 = target: T3, HDAC8 (Homo sapiens, UniProt Q9BY41); experiment: human recombinant HDAC inhibition assay; type: biochemical; settings: read-out: Ki value HDAC8
T3 sequence (Q9BY41 1-377): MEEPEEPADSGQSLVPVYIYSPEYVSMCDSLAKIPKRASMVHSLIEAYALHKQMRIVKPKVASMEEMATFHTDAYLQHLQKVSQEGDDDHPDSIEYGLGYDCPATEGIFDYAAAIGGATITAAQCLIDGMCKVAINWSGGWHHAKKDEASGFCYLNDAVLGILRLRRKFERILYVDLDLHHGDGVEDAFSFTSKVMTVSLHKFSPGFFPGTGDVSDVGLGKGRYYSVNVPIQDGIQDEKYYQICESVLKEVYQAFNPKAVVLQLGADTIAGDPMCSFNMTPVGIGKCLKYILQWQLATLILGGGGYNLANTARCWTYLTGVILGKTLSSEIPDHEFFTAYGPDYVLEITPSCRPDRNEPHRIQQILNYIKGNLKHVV

RAW264.7 macrophages = experiment: Viability assay; type: cell-based, murine; settings: C646 concentrations above 30 μM, 20 hrs
[7] = test system: precision-cut lung slices (PCLS); experiment: PCLS viability by lactate dehydrogenase; type: cell-based, murine; settings: C646 concentrations above 25 μM
type I and II HDACs = experiment: recombinant HDAC inhibition, summary over isoenzymes; type: biochemical, human
[8] = Boc-Lys-(Ac)-AMC as substrate, Lineweaver-Burk plot
[9] = RAW264.7, C646 at 30 μM, downregulation
[10] = C646 at 15, 20, 25 or 30 μM for 6 hrs

Chain of HDAC2 (Q92769 whole entry): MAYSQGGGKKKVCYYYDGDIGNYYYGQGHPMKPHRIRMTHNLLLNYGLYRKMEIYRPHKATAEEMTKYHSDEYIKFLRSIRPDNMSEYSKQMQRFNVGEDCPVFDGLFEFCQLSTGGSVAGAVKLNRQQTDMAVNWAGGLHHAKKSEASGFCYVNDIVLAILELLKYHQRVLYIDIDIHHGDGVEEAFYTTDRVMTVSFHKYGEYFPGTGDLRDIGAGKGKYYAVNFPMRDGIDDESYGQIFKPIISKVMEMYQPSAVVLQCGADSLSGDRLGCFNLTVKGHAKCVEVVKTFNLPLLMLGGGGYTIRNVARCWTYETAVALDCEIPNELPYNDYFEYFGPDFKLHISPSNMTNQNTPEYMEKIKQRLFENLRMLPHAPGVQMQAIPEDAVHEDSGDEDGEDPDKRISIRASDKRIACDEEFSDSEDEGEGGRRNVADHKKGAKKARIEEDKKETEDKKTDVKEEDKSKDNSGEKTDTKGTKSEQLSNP
Chain of HDAC3 (O15379 whole entry): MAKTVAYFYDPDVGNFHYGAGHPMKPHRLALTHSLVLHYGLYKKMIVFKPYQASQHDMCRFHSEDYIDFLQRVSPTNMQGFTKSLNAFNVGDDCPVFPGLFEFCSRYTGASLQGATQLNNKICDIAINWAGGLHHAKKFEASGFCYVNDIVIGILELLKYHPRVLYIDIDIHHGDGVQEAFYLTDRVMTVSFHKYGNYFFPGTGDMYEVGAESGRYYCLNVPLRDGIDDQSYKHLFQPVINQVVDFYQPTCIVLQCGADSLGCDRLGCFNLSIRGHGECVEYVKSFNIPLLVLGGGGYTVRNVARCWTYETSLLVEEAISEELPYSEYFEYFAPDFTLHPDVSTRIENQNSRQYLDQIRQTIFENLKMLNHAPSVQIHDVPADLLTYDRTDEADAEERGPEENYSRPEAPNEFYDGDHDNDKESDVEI
Chain of HDAC3 (Q9Y618 395-489 partner limits assumed): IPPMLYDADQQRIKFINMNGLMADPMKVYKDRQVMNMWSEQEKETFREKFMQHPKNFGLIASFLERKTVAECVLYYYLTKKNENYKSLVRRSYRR
Chain of HDAC1 (Q13547 whole entry): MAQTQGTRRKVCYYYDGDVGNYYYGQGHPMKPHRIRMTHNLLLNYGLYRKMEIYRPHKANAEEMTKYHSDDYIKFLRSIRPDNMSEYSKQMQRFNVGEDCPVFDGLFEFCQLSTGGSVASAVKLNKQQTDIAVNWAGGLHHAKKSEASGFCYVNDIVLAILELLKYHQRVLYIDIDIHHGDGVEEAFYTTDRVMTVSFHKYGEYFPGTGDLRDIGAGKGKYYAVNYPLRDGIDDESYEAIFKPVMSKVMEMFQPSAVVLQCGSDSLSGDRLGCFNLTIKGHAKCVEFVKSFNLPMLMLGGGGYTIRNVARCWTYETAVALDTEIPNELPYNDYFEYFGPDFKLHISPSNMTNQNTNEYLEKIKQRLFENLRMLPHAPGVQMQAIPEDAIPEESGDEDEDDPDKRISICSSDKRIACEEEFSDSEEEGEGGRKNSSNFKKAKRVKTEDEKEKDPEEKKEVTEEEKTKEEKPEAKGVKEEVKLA

In the case of `O=C(CCCCCCC(=O)Nc1ccccc1)NO` [SAHA, suberanilohydroxamic acid], the “LPS and IFNγ induced NF-κB promoter activity” value ([1]; SAHA 0.41 μM) is reported as “further enhanced”, the “percentage of change in IL-1β gene expression compared to vehicle” value ([2]; RAW264.7, SAHA at 0.41 μM, upregulation) is reported as 317% and the “percentage of change in iNOS gene expression compared to vehicle” value ([3]; SAHA at 0.41 μM, downregulation) is reported as 39.9%. For the same compound, the “percentage of change in IL-1β gene expression compared to vehicle” value ([3]; SAHA at 0.41 μM, upregulation) was 41.5%, the “percentage of change in IL-6 gene expression compared to vehicle” value ([3]; SAHA at 0.41 μM, upregulation) was 58.8% and the “acetylation of histone-derived peptides H4 4-17 and H3 18-26” value ([4]; SAHA 0.41 µM for 20 hrs) was “increased acetylation”. For the same compound, the α-tubulin acetylation ([5]; SAHA, data not shown) was “upregulated”.
With `CC1=NN(c2ccc(C(=O)O)cc2)C(=O)/C1=C\c1ccc(-c2cc(C)c(C)cc2[N+](=O)[O-])o1` [C646] the “Ki value KAT8” value [6] was “N.I”, the “Ki value HDAC1” value (HDAC1) was “N.I” and the “kinetics of inhibition of HDAC2” value (HDAC2; [8]) was “non-competitive inhibition”. The Ki (HDAC2; read-out: Ki value HDAC2) was 15 ± 1 µM, the Ki (HDAC3) was 25 ± 5 µM and the “kinetics of inhibition of HDAC6” value (HDAC6; [8]) was “non-competitive inhibition”. The Ki (HDAC6; read-out: Ki value HDAC6) was 7 ± 1 µM, the Ki (HDAC8) was 11 ± 1 µM and the “LPS and IFNγ induced NF-κB promoter activity” value ([1]; C646 at 15 μM or higher (up to 30 μM)) was “significant inhibition”. The “percentage of change in IL-12b gene expression compared to vehicle” value [2, 9] was 54.2%, the “percentage of change in TNFα gene expression compared to vehicle” value [2, 9] was 54.1% and the “percentage of change in IL-1β gene expression compared to vehicle” value ([3]; C646 at 25 μM, downregulation) was 72.3%. The “percentage of change in IL-12b gene expression compared to vehicle” value ([3]; C646 at 25 μM, downregulation) was 85.0%, the “percentage of change in TNFα gene expression compared to vehicle” value ([3]; C646 at 25 μM, downregulation) was 79.1% and the “percentage of change in iNOS gene expression compared to vehicle” value ([3]; C646 at 25 μM, downregulation) was 58.4%. The “acetylation status of histone H3 res. 18-26 (H3 K18 and H3 K23)” value ([4]; C646 30 μM for 6 hrs) was “small yet significant increase”, the “acetylation status of histone H4 res. 4-17” value [4, 10] was “No significant changes” and the “acetylation status of other histone H4 peptides” value [4, 10] was “no changes in acetylation status”. The “histone acetylation (H3 res. 18-26, H4 res. 4-17)” value ([4]; C646 at 15, 20, 25 or 30 μM for 20 hrs, no inflammatory stimulus) was “No changes in histone acetylation”, the “acetylation status of histone H3 res. 18-26 (H3 K18 and H3 K23)” value ([4]; C646 at concentrations lower than 30 μM for 6 hrs) was “not significant” and the α-tubulin acetylation ([5]; C646 15 μM for 6 hrs) was “but not at 15 μM”. The α-tubulin acetylation ([5]; C646 30 μM for 6 hrs) was “pronounced inhibition”, the α-tubulin acetylation ([5]; C646 30 μM for 20 hrs) was “inhibition of α-tubulin acetylation was also observed” and the “viability of the macrophages” value (RAW264.7 macrophages) was “decreased viability”. For the same compound, the “viability of PCLS” value [7] was “decreased viability” and the “concentration from which histone deacetylases are inhibited” value (type I and II HDACs) was ≥ 7 µM.
